Usually AUC(0-inf) stands for the area under the concentration-time curve extrapolated to infinity. As usually defined, the AUC(0-t) is exposure summed from dosing to a finite time, without extrapolation to infinity. A low value points to less exposure. As usually defined, the Cmax is the maximum level reached in the sampled fluid or tissue. What is called Tmax is the time from dosing to the highest level. In general, half-life refers to how long it takes for the measured level to halve. Low values mean fast loss, high ones slow loss.

Series [1] relates to human aortic endothelial cells (HAEC). The experiment in a line: Proliferative activity of HAEC (WST-8 assay). The series is classed as cell-based. The settings on record: 1 μM and 3 μM, 48 hours incubation, vs solvent control, n=3 (FIG. 1). The protocol: (§1) The Compound 1 was produced according to the method described in WO97/012869 and dissolved in dimethyl sulfoxide (solvent). As for cells used in the experiment, human aortic endothelial cells (HAEC (Lonza Group Ltd.)) and normal human umbilical vein endothelial cells (HUVEC; American Type Culture Collection) were used.
HAEC were cultured using an endothelial cell growth medium (EGM-2 bullet kit; Lonza) containing 10% fetal bovine serum (FBS). The proliferative activity of HAEC was assessed by a WST-8 assay using a Cell Counting Kit (Dojindo Laboratories). In a 96-well plate, HAEC were seeded at a concentration of 5000 cells per well, and incubated for 24 hours. Subsequently, the medium in each well was exchanged to 100 μL of fresh culture medium containing various concentrations of the Compound 1 or solvent alone. After the 48 hours of subsequent incubation, 10 μL of WST-8 reagent was added to each well. The plate was incubated another 4 hours, and then the absorbance at 450 nm was measured with an absorbance plate reader.

Series [2] concerns normal human umbilical vein endothelial cells (HUVEC). Description: HUVEC tube formation on Matrigel matrix. Format: cell-based. The protocol:
as §1
HUVEC were cultured using an endothelial cell growth medium (Endothelial Cell Growth Medium: Cell Applications) containing 10% FBS. In a 96-well plate coated with Matrigel matrix, HUVEC were seeded at a concentration of 1.5×10^4 cells per well, and incubated in a 200 μL of culture medium containing various concentrations of the […] or solvent alone for 18 hours. After that, total tube length in a field (Total tube length) was calculated by image analysis using a light microscope (E-400; Nikon Corp.).

Series [3] deals with rat femoral artery occlusion model. The experiment in a line: Hindlimb muscle blood flow in rat hindlimb ischemia model by ligation of femoral artery (colored microspheres). Format: in vivo. The settings on record: 30 mg/kg oral twice daily for 27 days. The procedure:
(§2) The Compound 1 was produced according to the method described in WO97/012869 and was used by dissolving in dimethyl sulfoxide or suspending in 1% (W/W) of hydroxypropyl methyl cellulose aqueous solution. As for animals, 7 to 9 week-old Sprague-Dawley (Slc:SD) male rats were used. As for anesthesia for operation, pentobarbital.sodium was intraperitoneally administered at a dose of 50 mg/kg.
(§3) Bilateral femoral arteries were exposed and the arteries were ligated using a suture under anesthesia. For histological analysis, the Compound 1 or base alone was orally administered twice daily for 27 days starting on the day of operation. On Day 28, the left gastrocnemius muscle was extirpated and frozen in a Tissue-Tek O.C.T. compound (Sakura Finetech Japan Co., Ltd.). Tissue sections at a thickness of 10 μm were prepared by slicing the frozen tissue sample with a freezing microtome, and dried in an air and fixed with acetone. […] The positive staining with α-SMA was identified by an examination using a light microscope, and the luminal area of intramuscular artery was quantified by image analysis (Win ROOF; Mitani Co., Ltd.). The blood flow volume on Day 28 in the hindlimb muscle in this model was determined by measuring at two points, in other words before and after exercise, using Dye-Trak VII+ microspheres (Triton Technology, Inc.).
In particular detail, initially a pentobarbital.sodium solution was intraperitoneally administered to the rat at a dose of 50 mg/kg to anesthetize. […] Wave profile of blood pressure that is characteristic to the left ventricular was detected to confirm whether the catheter has reached to the left ventricular. The temporal pulse pressure and average blood pressure were measured with a sphygmomanometer via the blood pressure transducer. […]

The test system is the same in series [4]. The experiment in a line: Luminal area of intramuscular artery in gastrocnemius muscle, rat femoral artery ligation model (α-SMA staining). Format: in vivo. The settings on record: 30 mg/kg oral twice daily for 27 days, mean±standard error, n=16, ligated control 3315±416, sham 14642±1062, P<0.05. The protocol: as §2, §3
Series [5] relates to excised rat femoral artery contracted with KCl. Description: Vasodilation of excised rat femoral artery in Magnus tube. Conditions: 0.1 μmol/L to 30 μmol/L, in vitro, n=3 (FIG. 9). The protocol:
The femoral artery vessel (3 mm in width) excised from the rat was placed to a Magnus tube filled with a Krebs-Henseleit solution maintained at 37° C., to which a mixed gas of 95% O2 and 5% CO2 was continuously injected by reference to the method by Abiru et al. (Abiru T, et al., Eur J. Pharmacol. 1995; 281:9-15.). The isometric tension of the vessel was measured with a tension transducer, and the result was recorded with a thermal printer. The vessel was adjusted to a resting tension of 0.75 g. The vessel was contracted by 60 mmol/L (rats) of potassium chloride, and then the Compound 1 or a base was continuously injected to the Magnus tube. At the end of each experiment, […] of papaverine was added in order to determine the maximum relaxation.

Series [6] can be described thus: Pharmacokinetics study in the rat, single oral dose. The settings on record: non-fasting, serum, n=3. Format: in vivo. The protocol: The concentration of the Compound 1 in the serum was detected with a high-performance liquid chromatography system attached with a fluorescence detector. The maximum plasma concentration (Cmax) and time to the maximum plasma concentration (Tmax) were determined from the measurement of the drug concentration in the serum, half-life (T1/2), and AUC. The time curve was computed by a least squares method and a trapezoidal method, respectively.

Series [7] deals with human aortic endothelial cells (HAEC). The settings on record: HAEC in vitro; eNOS phosphorylation via cAMP/PKA and PI3K/Akt, increased NO production (Non-Patent Document 6); cited from earlier work.
The test system of series [8] is lower-extremity ischemic mouse. Conditions: long-term administration (Non-Patent Document 7); cited from earlier work.
Setting [9] is: Sprague-Dawley (Slc:SD), single oral 3 mg/kg.
[10] abbreviates: Sprague-Dawley (Slc:SD), single oral 10 mg/kg.
The mark [11] stands for this setting: Sprague-Dawley (Slc:SD), single oral 100 mg/kg.
Setting [12] is: Sprague-Dawley, single oral 10 mg/kg.
Setting [13] is: Sprague-Dawley, single oral 30 mg/kg.

For the compound `O=C(NCCCOc1ccc2[nH]c(=O)ccc2c1)N(C1CC1)[C@@H]1CCCC[C@H]1O` [Compound 1, (−)-6-[3-[3-cyclopropyl-3-[(1R,2R)-2-hydroxycyclohexyl]ureido]propoxy]-2(1H)-quinolinone], the “effect on the proliferative activity of HAEC” value in series [1] is listed as “no effect”. Further, the “angiogenesis in photographs of HUVEC tube formation” value in series [2] (0.01, 0.1, 1, 10, 100 μM (FIG. 2)) was “no angiogenesis could be confirmed”. Further, the “HUVEC tube formation, ratio of Total tube length with respect to the control” value in series [2] (0.01 to 100 μM, 18 hours, n=2 (FIG. 3)) is listed as “no significant difference with respect to the control”. In addition, in series [2] (conclusion from HAEC proliferation and HUVEC tube formation), the “angiogenic activity via direct action to endothelial cells” value is listed as “does not have an angiogenic activity”. In series [3] (Day 28, after exercise, mean±standard error, n=20, control 0.561±0.034, P<0.001), the “blood flow in the gastrocnemius muscle after exercise” value is 0.818 ± 0.058 mL/min/g. Further, in series [3] (Day 28, after exercise, mean±standard error, n=20, control 0.697±0.039, P<0.001), the “blood flow in anterior tibialis muscle after exercise” value stood at 0.992 ± 0.060 mL/min/g. In addition, the “hindlimb muscle blood flow before exercise” value in series [3] (Day 28, before exercise (at rest), gastrocnemius and anterior tibialis) is listed as “no change”. In addition, the “luminal area of the main artery in the gastrocnemius muscle” value in series [4] was found to be 7100±824 μm^2. In series [5], the “vasodilating effect on ring specimen of excised rat femoral artery” value is recorded as “dose-dependent vasodilating effect”. The AUC(0-inf) in series [6] (setting [9]) stood at 1.33 µM·h; in series [6] (setting [11]), 48.2 µM·h; in series [6] (setting [12]), 2.55 µM·h; in series [6] (setting [13]), 14.8 µM·h. Further, the AUC(0-t) was 0.83 µM·h in series [6] (setting [9]), 2.38 µM·h in series [6] (setting [10]), 47.1 µM·h in series [6] (setting [11]) and 14.1 µM·h in series [6] (setting [13]). The Cmax was determined as 300 ± 60 nM in series [6] (setting [9]); 830 ± 140 nM in series [6] (setting [10]); 4730 ± 280 nM in series [6] (Sprague-Dawley (Slc:SD), single oral 30 mg/kg); 9760 ± 1440 nM in series [6] (Sprague-Dawley, single oral 100 mg/kg). Moreover, the Tmax was 1 h in series [6] (setting [9]), 1 h in series [6] (setting [11]), 1 h in series [6] (setting [12]) and 2 h in series [6] (setting [13]). The half-life in series [6] (setting [9]) was 2.64 h; in series [6] (setting [11]), 2.19 h; in series [6] (setting [12]) it was 2 h; in series [6] (setting [13]), 1.61 h.
For `O=C1CCc2cc(OCCCCc3nnnn3C3CCCCC3)ccc2N1` [cilostazol], in series [7], the “tubulogenesis of endothelial cells” value is “promotes tubulogenesis of endothelial cells”. Also, the “vascular density in lower-extremity muscles” value in series [8] is “elevates”.

(Values after patent publication US20140330022A1, “COLLATERAL BLOOD CIRCULATION DEVELOPMENT PROMOTER” (KOWA COMPANY, LTD., priority 2012, published 2014).)
